Measured values from US12655125B2 (SIRONAX LTD., priority 2020, dated 2026).
Read-outs that look alike come from different tables or passages of the source.

System: HT-29 cells
Test: HT29 Cells 0FBS Assay In Vitro (TNF-α/SMAC mimetic/zVAD-FMK induced necroptosis, CellTiter-Glo cell viability)
Format: cell-based
Conditions: Homo sapiens, HT-29 cells, FBS free medium, TNF-α (10 ng/ml), SMAC mimetic (6 uM), zVAD-FMK (10 μM), 20 hours, geometric mean EC50
Excerpt: Protocol for HT29 Cells 0FBS Assay In Vitro
• Cell line: HT-29 (ATCC® HTB-38™) • Culture medium: McCOY's 5 A, Gibco, Cat No. 16600-082 • FBS, Gibco, Cat No. 10099-141C • Trypsin: Gibco, Cat No. 25200-056 • DMSO: Sigma, Cat No. 67-68-5, 1 L • Assay plate: Corning #3903 • Compound dilution plate: Corning #3357 • Inducers: TNFα, GenScript, Cat No. ZO1001-50, • SmacM, Cat. No., HY-15989, MedChemExpress (MCE) • Z_VAD FMK, TargetMol, T6013 • Cell Titer-Glo® Luminescent Cell Viability Assay Kit: Promega, Cat No. G7573 • EnVision: PerkinElmer, 2105-0010 2. Cell Seeding of HT-29 Cells • 1) HT-29 cells were checked every day to make sure they are healthy and growing as expected. They were split sub-culturing when were approximately 80% confluent. • 2) First pre-warm the culture medium of McCOY's 5 A medium (Gibco, Cat No. 16600-082) with 10% FBS (Gibco, Cat No. 10099-141C) in 37° C. water bath for at least 30 min. • 3) Growing cells to desired level of confluency 80% in a T75 flask, aspirate the medium, and wash with warm PBS two times. • 4) Add 2-3 ml fresh warm trypsin (Gibco, Cat No. 25200-056) solution. Transfer the flask to a 37° C. incubator. • 5) After 5 minutes, tap the side of the flask, and examine the flask under a microscope for lifting. If necessary, return the cells to the incubator for an additional 5-10 minutes, with occasional tapping, until lifting is complete. • 6) Quickly neutralize the trypsin reaction by adding 6-9 ml cell culture medium, then transfer the cells to sterile 15 ml conical tubes. Pellet the cells by centrifugation at 300×g for 7 minutes, then decant the supernatant. • 7) Resuspend the cells in fresh cell culture medium. Do cell counting with hemocytometer. • 8) Seed 100 μl of 5,000 cells into each well of the sterile 96-well cell culture plate (Corning 3903) and culture overnight at 37° C. with 5% C02. 3. Compounds Titration and Treatment of HT-29 Cells • 1) All batches of compounds (CPDs) (e.g., compound 1-281) were dissolved in DMSO (Dimethyl sulfoxide) as 20 mM stock solution. • 2) Take 3 ul 20 mM stock solution of CPDs to 27 ul DMSO and mix well, continue the titration ratio of 1:3 (20 ul CPDs+40 ul DMSO), e.g., to give solutions of CPDS at 6.6 mM, 2.2 mM, etc., till the 10 points end. • 3) Take out assay plates with HT-29 cells from incubator, remove all culture medium then wash 1 time with 1×PBS, and change fresh McCOY's 5 A medium of FBS free with a cocktail of TNF-α (10 ng/ml), the SMAC mimetic (6 uM) and zVAD-FMK (10 μM) to stimulate the HT-29 cells to increase pRIPK1 levels and necroptosis. • 4) Add 0.5 μL of the diluted compound to the corresponding 96-well assay plates. • 5) Incubate the assay plates for 20 hours at 37° C. with 5% C02. 4. Performing Cell Viability Detection of HT-29 Cells after Treated with Compounds • 1) The CellTiter-Glo® Luminescent Cell Viability Assay was employed to detect the ATP levels of viable HT-29 cells. • 2) Equilibrate the CellTiter-Glo® buffer and the lyophilized substrate to room temperature prior to use. • 3) Resuspend the CellTiter-Glo® substrate with CellTiter-Glo® buffer, mix by gently vortexing to obtain a homogeneous solution. • 4) Pipette 20 μl the enzyme/substrate mixture by multi-channel pipette into the 96-well assay plates from step 5) under the Compounds titration and treatment stage. • 5) Place the plates on an orbital shaker and mix the contents for 3 minutes to induce cell lysis. • 6) Then allow the plates to incubate at room temperature for 10 minutes to stabilize luminescent signal. • 7) Read and record luminescence signal with EnVision. • 8) The geometric mean EC50 of the compounds were calculated from points response dose with duplicate. In Tables 2 and 4, activity is provided as follows: +++=0.1 nM≤EC50<100 nM; ++=100 nM≤EC50<1000 nM; +=1000 nM≤EC50<10000 nM.

[1] = read-out: Cell activity (EC50) of Compounds 1-116
[2] = read-out: Cell activity (EC50) of Compounds 117-281

Structure (SMILES) | EC50 [1] | EC50 [2]
NC(=O)c1cccn1-c1ncc(F)c(OC2CN(C(=O)N3N=CC[C@H]3c3cc(F)cc(F)c3)C2)n1 [compound 107, (S)-1-(4-((1-(5-(3,5-difluorophenyl)-4,5-dihydro-1H-pyrazole-1-carbonyl)azetidin-3-yl)oxy)-5-fluoropyrimidin-2-yl)-1H-pyrrole-2-carboxamide] | 0.1 to 100 nM | –
CNC(=O)Cn1nc(C)c(-c2ncc(F)c(OC3CN(C(=O)N4N=CC[C@H]4c4cc(F)cc(F)c4)C3)n2)c1C [compound 98, (S)-2-(4-(4-((1-(5-(3,5-difluorophenyl)-4,5-dihydro-1H-pyrazole-1-carbonyl)azetidin-3-yl)oxy)-5-fluoropyrimidin-2-yl)-3,5-dimethyl-1H-pyrazol-1-yl)-N-methylacetamide] | 0.1 to 100 nM | –
Cc1ccc(C(N)=O)n1-c1cc(OC2CN(C(=O)N3N=CC[C@H]3c3cc(F)cc(F)c3)C2)c(F)cn1 [compound 161, (S)-1-(4-((1-(5-(3,5-difluorophenyl)-4,5-dihydro-1H-pyrazole-1-carbonyl)azetidin-3-yl)oxy)-5-fluoropyridin-2-yl)-5-methyl-1H-pyrrole-2-carboxamide] | – | 0.1 to 100 nM
[2H]C1(c2cc(F)cc(F)c2)CC=NN1C(=O)N1CC(Oc2cc(-n3nc(C)c(C(N)=O)c3C)ncc2F)C1 (stereo not drawn) [compound 277, 1-(4-((1-(5-(3,5-difluorophenyl)-4,5-dihydro-1H-pyrazole-1-carbonyl-5-d)azetidin-3-yl)oxy)-5-fluoropyridin-2-yl)-3,5-dimethyl-1H-pyrazole-4-carboxamide] | – | 0.1 to 100 nM
Cn1ncc(C(=O)N2CCCCC2)c1-c1cc(OC2CN(C(=O)N3N=CC[C@H]3c3cc(F)cc(F)c3)C2)c(F)cn1 [compound 76, (S)-(5-(3,5-difluorophenyl)-4,5-dihydro-1H-pyrazol-1-yl)(3-((5-fluoro-2-(1-methyl-4-(piperidine-1-carbonyl)-1H-pyrazol-5-yl)pyridin-4-yl)oxy)azetidin-1-yl)methanone] | 1000 to 10000 nM | –
Cc1nc(C)n(-c2ncc(F)c(OC3CN(C(=O)N4N=CC[C@H]4c4cc(F)cc(F)c4)C3)n2)n1 [compound 103, (S)-(5-(3,5-difluorophenyl)-4,5-dihydro-1H-pyrazol-1-yl)(3-((2-(3,5-dimethyl-1H-1,2,4-triazol-1-yl)-5-fluoropyrimidin-4-yl)oxy)azetidin-1-yl)methanone] | 0.1 to 100 nM | –
CCn1nccc1-c1cc(OC2CN(C(=O)N3N=CC[C@H]3c3cc(F)cc(F)c3)C2)c(F)cn1 [compound 4, (S)-(5-(3,5-difluorophenyl)-4,5-dihydro-1H-pyrazol-1-yl)(3-((2-(1-ethyl-1H-pyrazol-5-yl)-5-fluoropyridin-4-yl)oxy)azetidin-1-yl)methanone] | 0.1 to 100 nM | –
CN(C)CCOc1cnn(C)c1-c1cc(OC2CN(C(=O)N3N=CC[C@H]3c3cc(F)cc(F)c3)C2)c(F)cn1 [compound 51, (S)-(5-(3,5-difluorophenyl)-4,5-dihydro-1H-pyrazol-1-yl)(3-((2-(4-(2-(dimethylamino)ethoxy)-1-methyl-1H-pyrazol-5-yl)-5-fluoropyridin-4-yl)oxy)azetidin-1-yl)methanone] | 100 to 1000 nM | –
Cc1oncc1-c1ncc(F)c(OC2CN(C(=O)N3N=CC[C@H]3c3cc(F)cc(F)c3)C2)n1 [compound 21, (S)-(5-(3,5-difluorophenyl)-4,5-dihydro-1H-pyrazol-1-yl)(3-((5-fluoro-2-(5-methylisoxazol-4-yl)pyrimidin-4-yl)oxy)azetidin-1-yl)methanone] | 0.1 to 100 nM | –
Cn1ncc(C(N)=O)c1-c1ccc(F)c(OC2CN(C(=O)N3N=CC[C@H]3c3cc(F)cc(F)c3)C2)n1 [compound 149, (S)-5-(6-((1-(5-(3,5-difluorophenyl)-4,5-dihydro-1H-pyrazole-1-carbonyl)azetidin-3-yl)oxy)-5-fluoropyridin-2-yl)-1-methyl-1H-pyrazole-4-carboxamide] | – | 0.1 to 100 nM
Cn1ncc(C#N)c1-c1ccc(F)c(OC2CN(C(=O)N3N=CCC3c3cc(F)cc(F)c3)C2)c1 (stereo not drawn) [compound 114] | 0.1 to 100 nM | –
Cn1ncc(F)c1-c1ncc(F)c(OC2CN(C(=O)N3N=CC[C@H]3c3cc(F)cc(F)c3)C2)n1 [compound 82, (S)-(5-(3,5-difluorophenyl)-4,5-dihydro-1H-pyrazol-1-yl)(3-((5-fluoro-2-(4-fluoro-1-methyl-1H-pyrazol-5-yl)pyrimidin-4-yl)oxy)azetidin-1-yl)methanone] | 0.1 to 100 nM | –
Cc1nc(C(N)=O)sc1-c1cc(OC2CN(C(=O)N3N=CC[C@H]3c3cc(F)cc(F)c3)C2)c(F)cn1 [compound 189, (S)-5-(4-((1-(5-(3,5-difluorophenyl)-4,5-dihydro-1H-pyrazole-1-carbonyl)azetidin-3-yl)oxy)-5-fluoropyridin-2-yl)-4-methylthiazole-2-carboxamide] | – | 0.1 to 100 nM
Cc1nn(C)c(C)c1-c1cc(OC2CN(C(=O)N3N=CC[C@H]3c3cc(F)cc(F)c3)C2)c(F)cn1 [compound 159, (S)-(5-(3,5-difluorophenyl)-4,5-dihydro-1H-pyrazol-1-yl)(3-((5-fluoro-2-(1,3,5-trimethyl-1H-pyrazol-4-yl)pyridin-4-yl)oxy)azetidin-1-yl)methanone] | – | 0.1 to 100 nM
Cc1c(CN)nn(C)c1-c1cc(OC2CN(C(=O)N3N=CC[C@H]3c3cc(F)cc(F)c3)C2)c(F)cn1 [compound 211, (S)-(3-((2-(3-(aminomethyl)-1,4-dimethyl-11H-pyrazol-5-yl)-5-fluoropyridin-4-yl)oxy)azetidin-1-yl)(5-(3,5-difluorophenyl)-4,5-dihydro-1H-pyrazol-1-yl)methanone] | – | 0.1 to 100 nM
CCS(=O)(=O)c1c(C)nn(-c2cc(OC3CN(C(=O)N4N=CC[C@H]4c4cc(F)cc(F)c4)C3)c(F)cn2)c1C [compound 167, (S)-(5-(3,5-difluorophenyl)-4,5-dihydro-1H-pyrazol-1-yl)(3-((2-(4-(ethylsulfonyl)-3,5-dimethyl-1H-pyrazol-1-yl)-5-fluoropyridin-4-yl)oxy)azetidin-1-yl)methanone] | – | 0.1 to 100 nM
Cc1nn(C2CNC2)c(C)c1-c1cc(OC2CN(C(=O)N3N=CC[C@H]3c3cc(F)cc(F)c3)C2)c(F)cn1 [compound 131, (S)-(3-((2-(1-(azetidin-3-yl)-3,5-dimethyl-11H-pyrazol-4-yl)-5-fluoropyridin-4-yl)oxy)azetidin-1-yl)(5-(3,5-difluorophenyl)-4,5-dihydro-1H-pyrazol-1-yl)methanone] | – | 0.1 to 100 nM
Cc1nn(-c2cc(OC3CN(C(=O)N4N=CC[C@H]4c4cc(F)cc(F)c4)C3)c(F)cn2)c(C)c1S(=O)(=O)Cc1ccccc1 [compound 236, (S)-(3-((2-(4-(benzylsulfonyl)-3,5-dimethyl-1H-pyrazol-1-yl)-5-fluoropyridin-4-yl)oxy)azetidin-1-yl)(5-(3,5-difluorophenyl)-4,5-dihydro-1H-pyrazol-1-yl)methanone] | – | 0.1 to 100 nM
